Measured values reported in EP0928291B1, “3-MERCAPTOACETYLAMINO-1,5-SUBSTITUTED-2-OXO-AZEPAN DERIVATIVES USEFUL AS INHIBITORS OF MATRIX METALLOPROTEINASE” (Aventis Pharmaceuticals Inc., priority 1996, dated 1998).

Assays:
Type in all cases: biochemical
[1] = target: T1, MMP-12 (macrophage metalloelastase) (Homo sapiens, UniProt P39900); assay: Determination of the inhibition constant (Ki) for MMP-12, fluorogenic substrate assay (cuvette or microtiter plate); conditions: substrate Mca-Pro-Leu-Gly-Leu-Dpa-Ala-Arg-NH2, 25C, pH 7.6, [MMP-12] = 2 nM, cuvette or microtiter plate method
T1 construct: made in house
T1 sequence (P39900 106-263 limits assumed): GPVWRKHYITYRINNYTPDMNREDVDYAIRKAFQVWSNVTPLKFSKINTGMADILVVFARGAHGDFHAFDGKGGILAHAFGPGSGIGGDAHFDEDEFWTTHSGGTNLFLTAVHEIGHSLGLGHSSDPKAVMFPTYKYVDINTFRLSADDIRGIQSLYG
Procedure: MMP-12 (EC 3.4.24.65) was cloned, expressed and purified according to Shapiro, S.D. et al., J Biol. Chem. 268, 23824-23829 (1993). […] Aliquots of MMP-12 were stored at -70C.
The potency of inhibitors of MMP-12 was measured using either quartz cuvettes or microtiter plates. The activity of MMP-12 was measured using a fluorogenic substrate, Mca-Pro-Leu-Gly-Leu-Dpa-Ala-Arg-NH2, Knight, C.G. et al., FEBS Lett. 296,263-266 (1992), at 25C in an assay buffer containing 50 mM Tris, pH 7.6, 0.2 M NaCl, 50 mM CaCl2, and 0.02% Brij-35. The increase in fluorescence due to cleavage of Gly-Leu peptide bond by MMP-12 was monitored with a Perkin-Elmer LS50B Fluorimeter (λex 328 nm, λem 393 nm, excitation slit 2.5, emission slit 10) for the cuvette assay and with a Molecular Devices Fmax fluorescence plate reader (λex 320 nm, λem 405 nm) for the microtiter plate assay. Substrate and inhibitor stock solutions were made in N,N,dimethylformamide (DMF) and 0.1% HCI-DMF, respectively. […]
Ki values were determined using the microtiter plate method in a manner similar to that described for the cuvette method with some modifications. […] Cleavage of substrate was recorded every 30 seconds for 30 minutes and progress curves were generated. […]

MMP-3 = target: T2, MMP-3 (Homo sapiens, UniProt P08254); assay: Determination of Inhibition Constant (Ki) for MMP-3, fluorogenic substrate assay; conditions: activated MMP-3, substrate Mca-Pro-Leu-Gly-Leu-Dpa-Ala-Arg-NH2, 37°C, pH 7.6, [S] = 1 µM, [MMP-3] = 1 nM
T2 construct: The active MMP-3 was obtained by treatment of proMMP-3 with trypsin; endogenous in cells; host or cells: human rheumatoid synovial fibroblasts stimulated with macrophage-conditioned medium (secreted proenzyme purified from the culture medium)
T2 sequence (P08254 100-477): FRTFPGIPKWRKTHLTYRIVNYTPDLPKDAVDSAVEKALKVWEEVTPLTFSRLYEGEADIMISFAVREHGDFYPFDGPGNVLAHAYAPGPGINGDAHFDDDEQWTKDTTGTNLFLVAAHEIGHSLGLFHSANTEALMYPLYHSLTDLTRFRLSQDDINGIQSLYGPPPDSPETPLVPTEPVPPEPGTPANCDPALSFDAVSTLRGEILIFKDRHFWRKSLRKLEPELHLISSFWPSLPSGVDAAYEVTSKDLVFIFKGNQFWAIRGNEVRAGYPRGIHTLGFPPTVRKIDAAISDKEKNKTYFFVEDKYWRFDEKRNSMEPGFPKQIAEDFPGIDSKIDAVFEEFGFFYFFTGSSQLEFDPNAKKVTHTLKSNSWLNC
Procedure: ProMMP-3 (EC 3.4.24.17; Stromelysin-1) was purified from culture medium of human rheumatoid synovial fibroblasts stimulated with macrophage-conditioned medium according to Okada, Y. et al., J. Biol. Chem. 261, 14245-14255 (1986). The active MMP-3 was obtained by treatment of proMMP-3 with trypsin (5 µg/mL) at 37°C for 30 min, followed by addition of soybean trypsin inhibitor (50 µg/mL). Aliquots of the activated MMP-3 were stored at -20°C.
The activated MMP-3 is assayed using a fluorogenic substrate, Mca-Pro-Leu-Gly-Leu-Dpa-Ala-Arg-NH2, Knight, C.G. et al., FEBS Lett. 296, 263-266 (1992), at 37°C in an assay buffer containing 50 mM Tris, pH 7.6, 0.2 M NaCI, 50 mM CaCl2, and 0.02% Brij-35. The increase in fluorescence due to cleavage of Gly-Leu peptide bond by MMP-3 was monitored with Perkin-Elmer LS50B Fluorimeter (λex 328 nm, λem 393 nm, excitation slit 2.5, emission slit 10). Substrate and inhibitor stock solutions were made in DMF and 0.1% HCl-DMF, respectively. […] Under these conditions, the measured Ki, app is close to true Ki.
(§1) The Ki for a competitive inhibitor is calculated using: v0/vi = (1 + [I]/Ki, app) and Ki = Ki, app/(1 + [S]/Km), where v0 is the initial rate in the absence of inhibitor, vi is the initial rate in the presence of inhibitor at the concentration of [I], [S] is the substrate concentration, and Km is the Michaelis constant. […]

MMP-2 = target: T3, MMP-2 (Homo sapiens, UniProt P08253); assay: Determination of Inhibition Constant (Ki) for MMP-2, fluorogenic substrate assay; conditions: recombinant MMP-2, substrate Mca-Pro-Leu-Gly-Leu-Dpa-Ala-Arg-NH2, 37°C, pH 7.6, [S] = 1 µM, [MMP-2] = 0.4 nM
T3 construct: made in house; host or cells: Pichia pastoris (strains KM71 / SMD1168, clone 24S)
T3 sequence (P08253 110-660): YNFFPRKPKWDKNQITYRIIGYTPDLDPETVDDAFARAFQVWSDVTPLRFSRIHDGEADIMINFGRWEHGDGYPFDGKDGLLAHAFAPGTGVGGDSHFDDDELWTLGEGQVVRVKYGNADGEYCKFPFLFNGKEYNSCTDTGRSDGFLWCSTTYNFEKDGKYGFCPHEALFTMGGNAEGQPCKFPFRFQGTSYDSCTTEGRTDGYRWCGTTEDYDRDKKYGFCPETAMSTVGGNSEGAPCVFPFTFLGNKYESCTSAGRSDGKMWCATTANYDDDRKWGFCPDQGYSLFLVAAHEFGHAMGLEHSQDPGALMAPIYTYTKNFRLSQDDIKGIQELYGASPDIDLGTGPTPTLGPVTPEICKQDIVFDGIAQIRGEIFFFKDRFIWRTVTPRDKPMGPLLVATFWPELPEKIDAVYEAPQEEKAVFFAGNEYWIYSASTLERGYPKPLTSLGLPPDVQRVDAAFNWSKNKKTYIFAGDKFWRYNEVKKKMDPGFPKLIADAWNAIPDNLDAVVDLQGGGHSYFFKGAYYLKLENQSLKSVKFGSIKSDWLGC
Source text: Recombinant MMP-2 was purified from the fermentation broth of yeast Pichia pastoris that carries the integrated MMP-2 gene into its chromosome. In brief, the full-length cDNA for MMP-2 was obtained by reverse transcription of RNA from human melanoma A375M cell line by the reverse transcriptase polymerase chain reaction (RT-PCR) using sequence specific oligonucleotides. The nucleotide sequence was confirmed by Taq cycle sequencing. The cDNA was ligated into the Pichia pastoris expression vector pHIL-D2 in such a way that the expression of pro-MMP2 is under the control of the methano inducible alcohol oxidase promoter. The expression construct was digested with either SalI or NsiI and used to transform the Pichia pastoris strains KM71 and SMD1168. […]
The active MMP-2 was obtained by activation of proMMP-2 at 37°C for 1 h with 4-aminophenylmercuric acetate which was then removed by a Sephadex G-50 spin column. […] The increase in fluorescence is monitored (λex 328 nm, λem 393 nm). […] Under these conditions, the measured Ki, app is close to true Ki.
as §1

Compound: CNC(=O)C(Cc1ccccc1)N1CCC(c2ccccc2)CC(NC(=O)C(S)CCCCN2C(=O)c3ccccc3C2=O)C1=O (stereo not drawn) [Compound II-1, 2H-Isoindole-2-hexanamide, N-[hexahydro-1-[2-(methylamino)-2-oxo-1-(phenylmethyl)ethyl]-2-oxo-5-phenyl-1H-azepin-3-yl]-1,3-dihydro-α-mercapto-1,3-dioxo-, [3S-(1(R*), 3α, 5α]]-]
- Ki [1]: 18 nM
- Ki (MMP-3): 39 nM
- Ki (MMP-2): 1.2 nM

Compound: CNC(=O)C(Cc1ccccc1)N1CCC(c2ccccc2)CC(NC(=O)C(S)CCCCN2C(=O)c3ccccc3C2=O)C1=O (stereo not drawn) [Compound III-1, 2H-Isoindole-2-hexanamide, N-[hexahydro-1-[2-(methylamino)-2-oxo-1-(phenylmethyl)ethyl]-2-oxo-5-phenyl-1H-azepin-3-yl]-1,3-dihydro-α-mercapto-1,3-dioxo-, [3S-[1(R*), 3α, 5β]]-]
- Ki [1]: 53 nM
- Ki (MMP-3): 73 nM
